Results as given in PMC6160999, “Pharmacokinetics, Tissue Distribution and Excretion of a Novel Diuretic (PU-48) in Rats” (Pharmaceutics, 2018).

How the values were obtained:
plasma protein = assay: Plasma protein binding by equilibrium dialysis, human plasma; assay type: in vitro ADME; conditions: for Concentration in Buffer (post-dialysis) / Concentration in Plasma (post-dialysis) / Protein-Binding Ratio: human plasma, n=5; for Concentration in Buffer (post-dialysis) / Concentration in Plasma (post-dialysis): 37 °C 24 h
Procedure: The concentration of PU-48 prototype in biological sample (feces and plasma protein binding analysis) was determined using a validated high-performance liquid chromatographic (HPLC) method our preliminary experiment (See Supplementary Materials HPLC Analysis and Method Validation). Briefly, the quantitative analysis of PU-48 was performed using a HPLC consistent of model 510 pump with a model 2487 ultraviolet detector, a model Rheodyne 7725 injector, and a column oven. The analytical conditions were as follows—The detection wavelength—293 nm; analytical column—a reversed-phase Acclaim C18 (4.6 mm × 250 mm, 5.0 µm, Dionex, Sunnyvale, CA, USA); column temperature—25 °C; mobile phase—acetonitrile—distilled water at a ratio of 60:40 (v/v); flow rate—1 mL/min. In this study, the methods for the feces samples were evaluated for specificity, linearity, precision, accuracy, and recovery (See Supplementary Materials Tables S4–S6).
The binding ratio of PU-48 to plasma protein was determined by equilibrium dialysis. A volume of 1 mL of plasma with PU-48 (0.25, 1 and 4 µg/mL) was added to a semi-permeable membrane bag (plasma chamber), the bag was place into the other clean tube with 9 mL PBS (buffer chamber). The equilibrium dialysis was performed at 37 °C for 24 h. At the end of dialysis, 500 μL each of post-dialysis samples from the plasma and the buffer chambers were collected and analyzed by HPLC method. The plasma protein binding of PU-48 was calculated from the concentration of PU-48 in PBS (free concentration) and in plasma (free + bound) according to equation: Bound (%) = (Concplasma chamber − Concbuffer chamber)/Concplasma chamber × 100%.

[1] = Stability of PU-48 in rat plasma QC samples (HPLC); assay type: in vitro ADME; conditions: for Stability: Measured Concentration: n=3
Procedure: HPLC Analysis and Method Validation
The concentration of PU -48 prototype in biological sample (feces and plasma protein binding analysis) was determined using a validated high -performance liquid chromatographic (HPLC) method in our preliminary experiment. Briefly, the analysis was performed using a HPLC consistent of model 510 pump with a model 2487 ultraviolet detector, a model Rheodyne 7725 injector, and a column oven. The analytical conditions were as follows: the detection wavelength: 293 nm; analytical column: a reversed-phase Acclaim C18 (4.6 mm × 250 mm, 5.0 µm, Dionex); column temperature: 25 C; mobile phase: acetonitrile: distilled water at a ratio of 60: 40 ( v/v); flow rate: 1 mL/min. In this study, the methods for the feces samples, were evaluated for specificity, linearity, precision, accuracy and […]
The intra- and inter-day precision and accuracy were determined by analyzing five replicates of QC samples (low, medium and high concentrations of 0.005, 0.08 and 1.6 µg/mL) at each QC level on the same day and on five consecutive days. The precision was expressed as the relative standard deviation (RSD) between the measured values and the targeted values. The pass c riterion was set at <15%. The accuracy was expressed as relative error (RE) between the measured values and the targeted values, which was set at < ± 15% (for the low concentration, the acceptance criterion was <20%). The stability of PU -48 in rat plasma w as determined by analyzing QC samples stored in different conditions, including room temperature and light irradiation for 24 h, post -preparation (the extracted samples were stored at 4°C for 96 h), three cycles of freeze and thaw (freezing at -20°C for 24 h and thawing at room temperature) and long-term stored at −20°C for 3 months. All of the QC samples for stability assessment were analyzed in triplicate.

[2] = extracted rat plasma samples, post−preparative (at 4 °C for 96 h), actual 0.005 µg/mL
[3] = extracted rat plasma samples, post−preparative (at 4 °C for 96 h), actual 0.08 µg/mL
[4] = extracted rat plasma samples, post−preparative (at 4 °C for 96 h), actual 1.6 µg/mL
[5] = rat plasma, freeze−thawing three cycles (at −20 °C), actual 0.005 µg/mL
[6] = rat plasma, freeze−thawing three cycles (at −20 °C), actual 0.08 µg/mL
[7] = rat plasma, freeze−thawing three cycles (at −20 °C), actual 1.6 µg/mL
[8] = rat plasma, freezing storage (at −20 °C for 3 months), actual 0.005 µg/mL
[9] = rat plasma, freezing storage (at −20 °C for 3 months), actual 0.08 µg/mL
[10] = rat plasma, light and room temperature for 24 h, actual 0.005 µg/mL
[11] = rat plasma, light and room temperature for 24 h, actual 0.08 µg/mL
[12] = rat plasma, light and room temperature for 24 h, actual 1.6 µg/mL

SMILES: COC(=O)c1sc2nc3ccc(OC)cc3cc2c1N [PU-48, Methyl 3-amino-6-methoxythieno [2,3-b] quinoline-2-carboxylate]
- Concentration in Buffer (post-dialysis) (plasma protein; added 0.25 µg/mL): 12 ± 3 ng/mL
- Concentration in Plasma (post-dialysis) (plasma protein; added 0.25 µg/mL): 146 ± 8 ng/mL
- Protein-Binding Ratio (plasma protein; added 0.25 µg/mL): 91.60 ± 1.57%
- Concentration in Buffer (post-dialysis) (plasma protein; added 1 µg/mL): 52 ± 3 ng/mL
- Concentration in Plasma (post-dialysis) (plasma protein; added 1 µg/mL): 611 ± 27 ng/mL
- Protein-Binding Ratio (plasma protein; added 1 µg/mL): 91.48 ± 0.64%
- Concentration in Buffer (post-dialysis) (plasma protein; added 4 µg/mL): 231 ± 29 ng/mL
- Concentration in Plasma (post-dialysis) (plasma protein; added 4 µg/mL): 2290 ± 93 ng/mL
- Protein-Binding Ratio (plasma protein; added 4 µg/mL): 89.90 ± 1.50%
- fraction unbound at 24 h (plasma protein; plasma, human, overall statement): < 0.1
- Stability: Accuracy (RE) [1, 2]: −8.43%
- Stability: Measured Concentration [1, 2]: 0.0046 ± 0.0006 µg/mL
- Stability: Accuracy (RE) [1, 3]: −10.23%
- Stability: Measured Concentration [1, 3]: 0.0718 ± 0.0019 µg/mL
- Stability: Accuracy (RE) [1, 4]: −3.08%
- Stability: Measured Concentration [1, 4]: 1.5507 ± 0.0904 µg/mL
- Stability: Accuracy (RE) [1, 5]: −7.33%
- Stability: Measured Concentration [1, 5]: 0.0046 ± 0.0004 µg/mL
- Stability: Accuracy (RE) [1, 6]: −3.43%
- Stability: Measured Concentration [1, 6]: 0.0773 ± 0.0055 µg/mL
- Stability: Accuracy (RE) [1, 7]: −8.49%
- Stability: Measured Concentration [1, 7]: 1.4641 ± 0.0840 µg/mL
- Stability: Accuracy (RE) [1, 8]: −9.37%
- Stability: Measured Concentration [1, 8]: 0.0045 ± 0.0002 µg/mL
- Stability: Accuracy (RE) [1, 9]: −6.48%
- Stability: Measured Concentration [1, 9]: 0.0748 ± 0.0058 µg/mL
- Stability: Accuracy (RE) ([1]; rat plasma, freezing storage (at −20 °C for 3 months), actual 1.6 µg/mL): −10.15%
- Stability: Accuracy (RE) [1, 10]: −9.278%
- Stability: Measured Concentration [1, 10]: 0.0045 ± 0.0003 µg/mL
- Stability: Accuracy (RE) [1, 11]: 9.07%
- Stability: Measured Concentration [1, 11]: 0.0873 ± 0.0011 µg/mL
- Stability: Accuracy (RE) [1, 12]: −10.63%
- Stability: Measured Concentration [1, 12]: 1.4299 ± 0.0296 µg/mL
